Test results published in ChEMBL document CHEMBL1147983.

Legend:
[1] = target: Epidermal growth factor receptor (Homo sapiens, UniProt P00533); test: Inhibition of EGFR
Aurora kinase A = target: T1, Aurora kinase A (Homo sapiens, UniProt O14965)
T1 sequence (O14965 whole entry): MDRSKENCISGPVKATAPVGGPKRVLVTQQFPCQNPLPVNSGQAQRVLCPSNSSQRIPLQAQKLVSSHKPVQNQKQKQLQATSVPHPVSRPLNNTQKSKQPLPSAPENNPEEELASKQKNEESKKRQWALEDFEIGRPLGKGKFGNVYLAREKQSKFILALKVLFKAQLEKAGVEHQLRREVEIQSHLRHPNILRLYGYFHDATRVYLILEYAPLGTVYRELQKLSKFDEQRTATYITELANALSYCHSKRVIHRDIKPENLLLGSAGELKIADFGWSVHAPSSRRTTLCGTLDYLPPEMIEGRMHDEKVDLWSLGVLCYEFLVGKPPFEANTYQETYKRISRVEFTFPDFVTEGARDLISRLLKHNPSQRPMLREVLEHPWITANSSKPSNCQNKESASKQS

Sequence of Epidermal growth factor receptor (P00533 whole entry): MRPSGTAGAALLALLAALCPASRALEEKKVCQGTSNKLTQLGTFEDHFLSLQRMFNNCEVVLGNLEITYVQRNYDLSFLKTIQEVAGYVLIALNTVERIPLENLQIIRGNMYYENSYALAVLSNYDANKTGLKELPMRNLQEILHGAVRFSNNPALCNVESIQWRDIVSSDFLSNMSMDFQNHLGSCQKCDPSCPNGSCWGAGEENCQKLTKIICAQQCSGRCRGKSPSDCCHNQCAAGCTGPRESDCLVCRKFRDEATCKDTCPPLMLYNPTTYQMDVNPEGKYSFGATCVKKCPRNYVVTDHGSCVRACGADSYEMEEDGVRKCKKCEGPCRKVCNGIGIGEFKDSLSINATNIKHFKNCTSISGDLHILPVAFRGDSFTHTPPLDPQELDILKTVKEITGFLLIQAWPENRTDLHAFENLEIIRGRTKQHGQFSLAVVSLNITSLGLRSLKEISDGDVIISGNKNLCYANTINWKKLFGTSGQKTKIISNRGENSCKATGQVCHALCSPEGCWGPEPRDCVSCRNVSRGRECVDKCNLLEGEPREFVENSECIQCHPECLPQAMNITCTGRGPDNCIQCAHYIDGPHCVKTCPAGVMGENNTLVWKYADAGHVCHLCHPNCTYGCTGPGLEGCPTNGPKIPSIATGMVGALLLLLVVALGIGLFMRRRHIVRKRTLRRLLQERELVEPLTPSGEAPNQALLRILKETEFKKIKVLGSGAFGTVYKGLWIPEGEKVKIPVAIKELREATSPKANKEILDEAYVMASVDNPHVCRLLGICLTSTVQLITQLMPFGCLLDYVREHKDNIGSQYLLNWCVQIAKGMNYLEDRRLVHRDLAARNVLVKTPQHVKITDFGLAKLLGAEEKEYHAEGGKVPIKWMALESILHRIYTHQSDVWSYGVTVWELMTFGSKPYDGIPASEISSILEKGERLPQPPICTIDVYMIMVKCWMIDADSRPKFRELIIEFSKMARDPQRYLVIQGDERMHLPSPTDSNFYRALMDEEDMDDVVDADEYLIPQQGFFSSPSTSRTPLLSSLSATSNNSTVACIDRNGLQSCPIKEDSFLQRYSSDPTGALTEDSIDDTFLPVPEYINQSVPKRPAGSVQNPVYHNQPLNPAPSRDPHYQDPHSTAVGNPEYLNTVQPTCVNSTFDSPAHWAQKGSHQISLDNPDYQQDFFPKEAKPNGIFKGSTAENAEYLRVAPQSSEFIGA

IC50 [1] [nM] | IC50 (Aurora kinase A) [nM] | Structure (SMILES)
> 10000 | 931 | O=C(Nc1cccc(Nc2ccnc(Nc3cccc(C(F)(F)F)c3)n2)c1)C1CC1
21 | > 10000 | O=C(Nc1cccc(Nc2cc(Nc3cccc(C(F)(F)F)c3)ncn2)c1)C1CC1
> 10000 |  | O=C(Nc1cccc(Nc2nccc(Nc3cccc(C(F)(F)F)c3)n2)c1)C1CC1 [ANILINOPYRIMIDINE1]
